Measured values reported in article PMC8234462, “Novel Cyclophilin Inhibitor Decreases Cell Proliferation and Tumor Growth in Models of Hepatocellular Carcinoma” (Cancers, 2021).

Assays:
iPS cardiomyocytes = assay: Cytotoxicity, CellTiter Glo; assay type: cell-based; conditions: Homo sapiens, Cardiomyocyte, 72 h, 3 days of treatment, read-out: IC50 (50% reduction in cell viability)
Procedure: The evaluation of the off-target effects of NV651 was performed by ImQuest BioSciences Inc. (Frederick, MD, USA) by analyzing the cytotoxicity in a panel of primary cells. NV651 was evaluated at a concentration of 30 µM and five serial half-logarithmic dilutions in triplicate. The positive control compounds for each cell type were purchased from Sigma-Aldrich (St. Louis, MO, USA) and were as follows: Unstimulated human peripheral blood mononuclear cells (PBMCs), phytohemagglutinin (PHA)-stimulated PBMCs, monocytes/macrophages, dendritic cells, hepatocytes, induced pluripotent stem cell (iPS) neurons: […] AZT, kidney cells (RPTEC): cisplatin and iPS cardiomyocytes: Doxazosin. iPS cardiomyocytes (Cellular Dynamics, Madison, WI, USA) were seeded in a 96-well plate precoated with 0.1% gelatin (Sigma-Aldrich, St. Louis, MO, USA) in a plating medium (Cellular dynamics, Madison, WI, USA) at a concentration of 1.5 × 10^4 cells/well. After 48 h of incubation, cells were washed, and NV651 diluted in the maintenance medium (Cellular Dynamics, Madison, WI, USA) was added. After 3 days of incubation, cell viability was measured with CellTiter Glo (Promega, Madison, WI, USA). CellTiter Glo was performed to evaluate cell viability. CellTiter Glo Luminescent Cell Viability Assay (Promega, Madison, WI, USA) was performed according to the manufacturer’s instructions.

RPTECs = assay: Cytotoxicity, CellTiter Glo; assay type: cell-based, human; conditions: 3 days of treatment, read-out: IC50 (50% reduction in cell viability)
Procedure: The evaluation of the off-target effects of NV651 was performed by ImQuest BioSciences Inc. (Frederick, MD, USA) by analyzing the cytotoxicity in a panel of primary cells. NV651 was evaluated at a concentration of 30 µM and five serial half-logarithmic dilutions in triplicate. The positive control compounds for each cell type were purchased from Sigma-Aldrich (St. Louis, MO, USA) and were as follows: Unstimulated human peripheral blood mononuclear cells (PBMCs), phytohemagglutinin (PHA)-stimulated PBMCs, monocytes/macrophages, dendritic cells, hepatocytes, induced pluripotent stem cell (iPS) neurons: […] AZT, kidney cells (RPTEC): cisplatin and iPS cardiomyocytes: Doxazosin. Human primary renal proximal tubule cells (hRPTEC, Lonza, Basel, Switzerland) were cultured at 1 × 10^4 cells/well in supplemented REGM medium (Lonza, Basel, Switzerland). Following overnight incubation for adherence, cells were treated with NV651 in triplicate. After a 3-day treatment, CellTiter Glo (Promega, Madison, WI, USA) was used. CellTiter Glo was performed to evaluate cell viability. CellTiter Glo Luminescent Cell Viability Assay (Promega, Madison, WI, USA) was performed according to the manufacturer’s instructions.

Bone marrow progenitors = assay: Cytotoxicity, colony formation; assay type: cell-based, human; conditions: 14 days of treatment, colonies counted
Procedure: The evaluation of the off-target effects of NV651 was performed by ImQuest BioSciences Inc. (Frederick, MD, USA) by analyzing the cytotoxicity in a panel of primary cells. NV651 was evaluated at a concentration of 30 µM and five serial half-logarithmic dilutions in triplicate. The positive control compounds for each cell type were purchased from Sigma-Aldrich (St. Louis, MO, USA) and were as follows: Unstimulated human peripheral blood mononuclear cells (PBMCs), phytohemagglutinin (PHA)-stimulated PBMCs, monocytes/macrophages, dendritic cells, hepatocytes, induced pluripotent stem cell (iPS) neurons: […] AZT, kidney cells (RPTEC): cisplatin and iPS cardiomyocytes: Doxazosin. Bone marrow progenitor cells (Invitrogen, Waltham, MA, USA) were suspended in cell culture medium (Iscove-modified Dulbecco medium) containing 15% FBS, 10% giant tumor-conditioned medium (Bone Marrow Plus, Sigma-Aldrich, St. […] Cells (1 × 10^5 cells/well) were seeded in 6-well plates containing NV651 in triplicate. Cells were incubated for 14 days, and colonies (more than 30 cells) were counted.

HEP3B2.1-7-Luc = assay: Cell proliferation assay: Acumen; assay type: cell-based; conditions: Homo sapiens, 168 h, 7 days, read-out: Abs IC50 growth inhibition
Procedure: (§1) Compound screening and comparison of the antiproliferative effect of NV651 and sorafenib were performed by Shanghai ChemPartner Co., Ltd. (Shanghai, China). Cells were seeded in a 96-well plate at the following concentrations: LIXC-003 400 cells/well, LIXC-004 1000 cells/well, LIXC-086 5000 cells/well, LIXC-066 1250 cells/well, LIXC-012 2000 cells/well, LIXC-006 1250 cells/well, HEPG2 1000 cells/well, HUH7 2000 cells/well and Hep3B2.1-7-Luc 1000 cells/well. Cells were treated with either sorafenib or NV651 at 0.004, 0.011, 0.034, 0.103, 0.309, 0.926, 2.778, 8.333, 25 µM or an equivalent volume with DMSO.
(§2) After 7 days, cells were trypsinized and collected. Fifty microliters of cell suspension were added to 50 µL of 2-µM Calcein AM (Invitrogen, Cat# C3099, Waltham, MA, USA) diluted in HBSS and placed in a black-walled 96-well plate. The plate was left for 30 min at room temperature, followed by a scan with Acumen eX3.
(§3) Growth inhibition for direct cell counting (%) by Acumen was calculated as:(1) 100−100∗Experimental count−Blank/DMSO count −Blank

HEPG2 = assay: Cell proliferation assay: Acumen; assay type: cell-based; conditions: Homo sapiens, 168 h, 7 days, read-out: Abs IC50 growth inhibition
Procedure: as §1, §2, §3

HUH7 = assay: Cell proliferation assay: Acumen; assay type: cell-based; conditions: Homo sapiens, Huh-7, 168 h, 7 days, read-out: Abs IC50 growth inhibition
Procedure: as §1, §2, §3

LIXC-003 = assay: Cell proliferation assay: Acumen; assay type: cell-based; conditions: Homo sapiens, 168 h, 7 days, read-out: Abs IC50 growth inhibition
Procedure: as §1, §2, §3

LIXC-004 = assay: Cell proliferation assay: Acumen; assay type: cell-based; conditions: Homo sapiens, 168 h, 7 days, read-out: Abs IC50 growth inhibition
Procedure: as §1, §2, §3

LIXC-006 = assay: Cell proliferation assay: Acumen; assay type: cell-based; conditions: Homo sapiens, 168 h, 7 days, read-out: Abs IC50 growth inhibition
Procedure: as §1, §2, §3

LIXC-012 = assay: Cell proliferation assay: Acumen; assay type: cell-based; conditions: Homo sapiens, 168 h, 7 days, read-out: Abs IC50 growth inhibition
Procedure: as §1, §2, §3

LIXC-066 = assay: Cell proliferation assay: Acumen; assay type: cell-based; conditions: Homo sapiens, 168 h, 7 days, read-out: Abs IC50 growth inhibition
Procedure: as §1, §2, §3

LIXC-086 = assay: Cell proliferation assay: Acumen; assay type: cell-based; conditions: Homo sapiens, 168 h, 7 days, read-out: Abs IC50 growth inhibition
Procedure: as §1, §2, §3

Dendritic cells = assay: Cytotoxicity, CellTiter Glo; assay type: cell-based; conditions: Homo sapiens, Dendritic cell, 168 h, 7 days of treatment, read-out: IC50 (50% reduction in cell viability)
Procedure: The evaluation of the off-target effects of NV651 was performed by ImQuest BioSciences Inc. (Frederick, MD, USA) by analyzing the cytotoxicity in a panel of primary cells. NV651 was evaluated at a concentration of 30 µM and five serial half-logarithmic dilutions in triplicate. The positive control compounds for each cell type were purchased from Sigma-Aldrich (St. Louis, MO, USA) and were as follows: Unstimulated human peripheral blood mononuclear cells (PBMCs), phytohemagglutinin (PHA)-stimulated PBMCs, monocytes/macrophages, dendritic cells, hepatocytes, induced pluripotent stem cell (iPS) neurons: […] AZT, kidney cells (RPTEC): cisplatin and iPS cardiomyocytes: Doxazosin. The isolation was based on Nair, Archer. Briefly, freshly separated PBMCs from one donor were suspended in DPBS at 4 × 10^6 cells per mL and cultured in a T-75 flask. Cells were incubated for 30 min and then washed 5–7 times with DPBS to remove nonadherent cells. Cells were cultured in RPMI 1640 supplemented with 10% FBS, 2-mM L-glutamine, 25-mM HEPES, […], 100-µg/mL streptomycin, 50-ng/mL rhGM-CSF and 50-ng/mL rhIL-4 and incubated for 7 days. After the incubation period, cells were cultured in the same media with the addition of LPS (10 ng/mL) for two days. […]

Cyp40 = Cyp40 (Homo sapiens, UniProt Q08752); assay: PPIase activity assay (chymotrypsin-coupled); assay type: biochemical; conditions: free-cell assay; Cyp equilibrated 1 h at 5 °C with inhibitor; read-out: absolute IC50, PPIase activity Cyp40
Procedure: (§4) The PPIase activity of CypA, CypB, CypD and Cyp40 was determined by following the rate of hydrolysis of N-succinyl-Ala-Ala-Pro-Phe-p-nitroanilide by chymotrypsin, a digestive enzyme that only hydrolyzes the trans form of the peptide. Therefore, the hydrolysis of the cis form, the concentration of which is maximized by using a stock dissolved in trifluoroethanol containing 470-mM LiCl, is only possible with the isomerization from the cis to the trans form. […] The reaction was started with the peptide addition, and the change in absorbance was monitored spectrophotometrically at a 6-s interval for 6 min. The blank rates of hydrolysis (in the absence of Cyps) were subtracted from the rates in the presence of Cyps. The initial rates of the enzymatic reaction were analyzed by a first-order regression analysis of the time course of the change in absorbance.

CypB = CypB (Homo sapiens, UniProt P23284); assay: PPIase activity assay (chymotrypsin-coupled); assay type: biochemical
Procedure: as §4

CypD = CypD (Homo sapiens, UniProt P30405); assay: PPIase activity assay (chymotrypsin-coupled); assay type: biochemical; conditions: free-cell assay; Cyp equilibrated 1 h at 5 °C with inhibitor; read-out: absolute IC50, PPIase activity CypD
Procedure: as §4

CypD, sequence (P30405 30-207): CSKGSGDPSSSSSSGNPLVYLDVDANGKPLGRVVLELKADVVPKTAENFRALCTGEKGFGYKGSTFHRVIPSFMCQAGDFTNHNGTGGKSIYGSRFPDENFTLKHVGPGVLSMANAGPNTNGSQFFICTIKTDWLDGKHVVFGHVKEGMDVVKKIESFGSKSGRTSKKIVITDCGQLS
CypB, sequence (P23284 34-216): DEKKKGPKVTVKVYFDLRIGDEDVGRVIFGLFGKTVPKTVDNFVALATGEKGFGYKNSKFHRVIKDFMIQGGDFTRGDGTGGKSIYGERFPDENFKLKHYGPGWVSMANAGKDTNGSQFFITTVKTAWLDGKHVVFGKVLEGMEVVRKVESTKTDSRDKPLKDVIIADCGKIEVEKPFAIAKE
Cyp40, sequence (Q08752 whole entry): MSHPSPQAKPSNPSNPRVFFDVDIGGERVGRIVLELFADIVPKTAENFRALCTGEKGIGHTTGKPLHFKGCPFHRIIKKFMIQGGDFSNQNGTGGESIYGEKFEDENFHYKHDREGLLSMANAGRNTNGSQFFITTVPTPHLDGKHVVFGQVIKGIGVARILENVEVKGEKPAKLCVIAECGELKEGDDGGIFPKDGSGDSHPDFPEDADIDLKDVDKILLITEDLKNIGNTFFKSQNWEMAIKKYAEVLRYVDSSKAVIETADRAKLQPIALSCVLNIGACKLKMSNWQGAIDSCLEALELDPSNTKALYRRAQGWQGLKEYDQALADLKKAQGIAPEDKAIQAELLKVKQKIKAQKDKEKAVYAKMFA

COc1cc2nc(N3CCN(C(=O)C4COc5ccccc5O4)CC3)nc(N)c2cc1OC (stereo not shown) [doxazosin, reference compound]
IC50 (iPS cardiomyocytes): 39800 nM

N.N.[Cl][Pt][Cl] [cisplatin, reference compound]
IC50 (RPTECs): 9 nM

Cc1cn([C@H]2C[C@H](N=[N+]=[N-])[C@@H](CO)O2)c(=O)[nH]c1=O [AZT, reference compound]
IC50 (Bone marrow progenitors): 890 nM

CNC(=O)c1cc(Oc2ccc(NC(=O)Nc3ccc(Cl)c(C(F)(F)F)c3)cc2)ccn1 [Sorafenib, reference compound]
IC50 (HEP3B2.1-7-Luc): 3900 nM | IC50 (HEPG2): 2330 nM | IC50 (HUH7): 739 nM | IC50 (LIXC-003): 3 nM | IC50 (LIXC-004): 1450 nM | IC50 (LIXC-006): 3350 nM | IC50 (LIXC-012): 1250 nM | IC50 (LIXC-066): 1650 nM | IC50 (LIXC-086): 1900 nM

CN[C@@H]1C[C@H]2O[C@@](C)([C@@H]1OC)n1c3ccccc3c3c4c(c5c6ccccc6n2c5c31)C(=O)NC4 [Staurosporine, reference compound]
IC50 (Dendritic cells): 9 nM

CC[C@H]1C[C@H](C)[C@@]2(NC1=O)O[C@@H](C[C@H](O)[C@@H](C)CC/C=C/C=C(\C)[C@@H]1C/C=C/C=C/[C@H](O)[C@H](C)[C@@H](O)[C@@H](CCC(C)=O)C(=O)N[C@@H](C(C)C)C(=O)N[C@@H](Cc3cccc(O)c3)C(=O)N3CCC[C@H](N3)C(=O)O1)[C@H](C)[C@H](O)[C@@H]2C [SfA, Sanglifehrin A, reference compound]
IC50 (Cyp40): 5.62 nM | IC50 (CypB): 5.12 nM | IC50 (CypD): 5.25 nM
